Experimental findings from patent publication EP4562003B1, “NOVEL 7-SUBSTITUTED INDOLE SULFONAMIDE DERIVATIVES” (F. Hoffmann-La Roche AG, priority 2022, dated 2024) are described below.

pIC50: −log10 of the molar value.

human GPR17 short isoform, sequence (Q13304 29-367): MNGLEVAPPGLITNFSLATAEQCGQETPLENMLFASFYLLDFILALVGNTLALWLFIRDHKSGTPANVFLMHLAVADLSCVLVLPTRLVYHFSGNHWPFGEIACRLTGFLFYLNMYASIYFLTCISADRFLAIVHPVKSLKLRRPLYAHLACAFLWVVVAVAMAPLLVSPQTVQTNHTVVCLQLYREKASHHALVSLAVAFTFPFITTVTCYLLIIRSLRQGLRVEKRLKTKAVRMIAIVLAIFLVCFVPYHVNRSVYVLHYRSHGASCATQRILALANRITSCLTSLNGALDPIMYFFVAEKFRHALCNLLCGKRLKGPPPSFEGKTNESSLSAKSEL

This experiment deals with human GPR17 short isoform (Homo sapiens, UniProt Q13304). The experiment can be described thus: GPR17 cAMP assay (TR-FRET cAMP quantification, antagonist mode). In kind it is cell-based. The settings on record: CHO-K1 cells stably expressing human GPR17 short isoform; EC80 of agonist MDL29,951; forskolin 15µM; IBMX 0.5mM; 30 minutes at room temperature; read-out: hGPR17 cAMP IC50. Here is the method: GPR17 cAMP Assay Protocol:
CHO-K1 cells stably expressing vector containing untagged human GPR17 short isoform (Roche) were cultured at 37°C / 5% CO2 in DMEM (Dulbecco's Modified Eagle Medium):F-12 (1:1) supplemented with 10% foetal bovine serum and 400 µg/ml Geneticin.
Changes in intracellular cyclic adenosine monophosphate (cAMP) levels were quantified using the Nano-TRF Detection Assay kit (Roche Diagnostics, Cat. No. 05214386001). This assay allows for direct cAMP quantification in a homogeneous solution. cAMP is detected based on time-resolved fluorescence energy transfer (TR-FRET) and competitive binding of ruthenylated cAMP and endogenous cAMP to an anti-cAMP monoclonal antibody labeled with AlexaFluor-700. The Ruthenium complex serves as the FRET donor and transfers energy to AlexaFluor-700. The FRET signal is inversely proportional to the cAMP concentration.
CHO-GPR17S cells were detached with Accutase and resuspended in assay buffer consisting of Hank's Balanced Salt Solution (HBSS), 10mM HEPES (4-(2-hydroxyethyl) piperazine-1-ethanesulfonic acid solution) and 0.1% bovine serum albumin (pH 7.4). The cells were seeded in black 384-well plates (Corning) at a density of 10'000 cells / 20µl assay buffer until the addition of compounds.
Test antagonist compounds were serially diluted in dimethyl sulfoxide (DMSO) and spotted in 384-well plates. The compounds were then diluted in HBSS buffer supplemented with an EC80 concentration of MDL29,951 (3-(2-Carboxy-4,6-dichloroindol-3-yl)propionic acid) (GPR17 agonist) plus 3-Isobutyl-1-methylxanthine (IBMX) (0.5mM final concentration) and added to the cells at room temperature. Forskolin (15µM final concentration) was added 5 minutes after the test compounds and the cells were incubated at room temperature for 30 minutes. The assay was stopped by adding cAMP detection mix (containing detergents for cell lysis) for 90 minutes at room temperature.
Cellular cAMP was measured using a Paradigm reader (Molecular Devices). The raw data was used to calculate the FRET signal based on the assay's P-factor as per cAMP kit instructions. The data was normalized to the maximal activity of a reference antagonist and dose response curves were fitted to the percent activity of the test compounds using a sigmoidal dose response model (Genedata Screener).
Results in the hGPR17 cAMP assay are provided for compounds of formula I in Table 1 Table 1: […]
In the case of `COc1nc(NS(=O)(=O)c2c[nH]c3c(-c4cnccn4)cccc23)nc(OC)c1CC(F)F` [Example 25, N-[5-(2,2-difluoroethyl)-4,6-dimethoxy-pyrimidin-2-yl]-7-pyrazin-2-yl-1H-indole-3-sulfonamide], the pIC50 is 7.25.

In the case of `COc1nc(NS(=O)(=O)c2c[nH]c3c(-c4ncccn4)c(F)ccc23)nc(OC)c1OCC(F)F` [Example 26, N-[5-(2,2-difluoroethoxy)-4,6-dimethoxy-pyrimidin-2-yl]-6-fluoro-7-(2-pyrimidyl)-1H-indole-3-sulfonamide], the pIC50 was 6.66.

Take `COc1nc(NS(=O)(=O)c2c[nH]c3c(-c4ncccn4)c(F)ccc23)nc(OC)c1CC(F)F` [Example 27, N-[5-(2,2-difluoroethyl)-4,6-dimethoxy-pyrimidin-2-yl]-6-fluoro-7-(2-pyrimidyl)-1H-indole-3-sulfonamide]: the pIC50 is 6.92.

Take `COc1nc(NS(=O)(=O)c2c[nH]c3c(-c4ncccn4)c(F)ccc23)nc(OC)c1OCCF` [Example 28, 6-fluoro-N-[5-(2-fluoroethoxy)-4,6-dimethoxy-pyrimidin-2-yl]-7-(2-pyrimidyl)-1H-indole-3-sulfonamide]: the pIC50 was 6.51.

Consider `COc1nc(NS(=O)(=O)c2c[nH]c3c(-c4ncccn4)c(F)ccc23)nc(OC)c1OC(F)F` [Example 29, N-[5-(difluoromethoxy)-4,6-dimethoxy-pyrimidin-2-yl]-6-fluoro-7-(2-pyrimidyl)-1H-indole-3-sulfonamide], for which the pIC50 was 6.22.

Take `COc1nc(NS(=O)(=O)c2c[nH]c3c(-c4cnccn4)cccc23)nc(OC)c1OCC(F)F` [Example 30, N-[5-(2,2-difluoroethoxy)-4,6-dimethoxy-pyrimidin-2-yl]-7-pyrazin-2-yl-1H-indole-3-sulfonamide]: the pIC50 was 6.89.

`COc1nc(NS(=O)(=O)c2c[nH]c3c(-c4cnccn4)c(F)ccc23)nc(OC)c1CC(F)F` [Example 31, N-[5-(2,2-difluoroethyl)-4,6-dimethoxy-pyrimidin-2-yl]-6-fluoro-7-pyrazin-2-yl-1H-indole-3-sulfonamide]: the pIC50 is 7.08.

Consider `COc1nc(NS(=O)(=O)c2c[nH]c3c(-c4cnccn4)c(F)ccc23)nc(OC)c1OCCF` [Example 32, 6-fluoro-N-[5-(2-fluoroethoxy)-4,6-dimethoxy-pyrimidin-2-yl]-7-pyrazin-2-yl-1H-indole-3-sulfonamide], for which the pIC50 was 6.89.

In the case of `COc1nc(NS(=O)(=O)c2c[nH]c3c(-c4cnccn4)c(F)ccc23)nc(OC)c1OCC(F)F` [Example 33, N-[5-(2,2-difluoroethoxy)-4,6-dimethoxy-pyrimidin-2-yl]-6-fluoro-7-pyrazin-2-yl-1H-indole-3-sulfonamide], the pIC50 was 6.88.

Take `COc1nc(NS(=O)(=O)c2c[nH]c3c(-c4cnccn4)c(F)ccc23)nc(OC)c1OC(F)F` [Example 34, N-[5-(difluoromethoxy)-4,6-dimethoxy-pyrimidin-2-yl]-6-fluoro-7-pyrazin-2-yl-1H-indole-3-sulfonamide]: the pIC50 is 6.39.

Turning to `COc1nc(NS(=O)(=O)c2c[nH]c3c(-c4ncccn4)c(Br)ccc23)nc(OC)c1CC(F)F` [Example 35, 6-bromo-N-[5-(2,2-difluoroethyl)-4,6-dimethoxy-pyrimidin-2-yl]-7-(2-pyrimidyl)-1H-indole-3-sulfonamide], the pIC50 is 7.47.

Turning to `COc1nc(NS(=O)(=O)c2c[nH]c3c(-c4ncccn4)c(Br)ccc23)nc(OC)c1OC(F)F` [Example 36, 6-bromo-N-[5-(difluoromethoxy)-4,6-dimethoxy-pyrimidin-2-yl]-7-(2-pyrimidyl)-1H-indole-3-sulfonamide], the pIC50 was 7.38.

As for `COc1nc(NS(=O)(=O)c2c[nH]c3c(-c4ncccn4)c(Br)ccc23)nc(OC)c1OCCF` [Example 37, 6-bromo-N-[5-(2-fluoroethoxy)-4,6-dimethoxy-pyrimidin-2-yl]-7-(2-pyrimidyl)-1H-indole-3-sulfonamide], the pIC50 is 7.17.

As to `COc1nc(NS(=O)(=O)c2c[nH]c3c(-c4ncccn4)c(Br)ccc23)nc(OC)c1OCC(F)F` [Example 38, 6-bromo-N-[5-(2,2-difluoroethoxy)-4,6-dimethoxy-pyrimidin-2-yl]-7-(2-pyrimidyl)-1H-indole-3-sulfonamide], the pIC50 was 7.27.

As to `COc1nc(NS(=O)(=O)c2c[nH]c3c(-c4cnccn4)c(Br)ccc23)nc(OC)c1CC(F)F` [Example 39, 6-bromo-N-[5-(2,2-difluoroethyl)-4,6-dimethoxy-pyrimidin-2-yl]-7-pyrazin-2-yl-1H-indole-3-sulfonamide], the pIC50 was 7.77.

In the case of `COc1nc(NS(=O)(=O)c2c[nH]c3c(-c4cnccn4)c(Br)ccc23)nc(OC)c1OC(F)F` [Example 40, 6-bromo-N-[5-(difluoromethoxy)-4,6-dimethoxy-pyrimidin-2-yl]-7-pyrazin-2-yl-1H-indole-3-sulfonamide], the pIC50 was 8.05.

Take `COc1nc(NS(=O)(=O)c2c[nH]c3c(-c4cnccn4)c(Br)ccc23)nc(OC)c1OCC(F)F` [Example 41, 6-bromo-N-[5-(2,2-difluoroethoxy)-4,6-dimethoxy-pyrimidin-2-yl]-7-pyrazin-2-yl-1H-indole-3-sulfonamide]: the pIC50 was 7.82.

In the case of `COc1nc(NS(=O)(=O)c2c[nH]c3c(-c4cnc(F)cn4)c(Cl)ccc23)nc(OC)c1OCC(F)F` [Example 42, 6-chloro-N-[5-(2,2-difluoroethoxy)-4,6-dimethoxy-pyrimidin-2-yl]-7-(5-fluoropyrazin-2-yl)-1H-indole-3-sulfonamide], the negative logarithm of the IC50 (pIC50) was 7.42.

With `COc1nc(NS(=O)(=O)c2c[nH]c3c(-c4cccnn4)c(Br)ccc23)nc(OC)c1CC(F)F` [Example 43, 6-bromo-N-[5-(2,2-difluoroethyl)-4,6-dimethoxy-pyrimidin-2-yl]-7-pyridazin-3-yl-1H-indole-3-sulfonamide], the pIC50 was 7.49.

In the case of `COc1nc(NS(=O)(=O)c2c[nH]c3c(-c4ncccn4)c(C(F)F)ccc23)nc(OC)c1OCCF` [Example 44, 6-(difluoromethyl)-N-[5-(2-fluoroethoxy)-4,6-dimethoxy-pyrimidin-2-yl]-7-(2-pyrimidyl)-1H-indole-3-sulfonamide], the pIC50 is 6.74.

Regarding `COc1nc(NS(=O)(=O)c2c[nH]c3c(-c4ncc[nH]4)c(F)ccc23)nc(OC)c1OCC(F)F` [Example 45, N-[5-(2,2-difluoroethoxy)-4,6-dimethoxy-pyrimidin-2-yl]-6-fluoro-7-(1H-imidazol-2-yl)-1H-indole-3-sulfonamide], the pIC50 was 7.30.

With `COc1nc(NS(=O)(=O)c2c[nH]c3c(-c4ncn(C)c4C)c(Cl)ccc23)nc(OC)c1OCC(F)F` [Example 46, 6-chloro-N-[5-(2,2-difluoroethoxy)-4,6-dimethoxy-pyrimidin-2-yl]-7-(1,5-dimethylimidazol-4-yl)-1H-indole-3-sulfonamide], the pIC50 is 7.47.

Consider `COc1nc(NS(=O)(=O)c2c[nH]c3c(-c4cn(C)cn4)c(Cl)ccc23)nc(OC)c1OCC(F)F` [Example 47, 6-chloro-N-[5-(2,2-difluoroethoxy)-4,6-dimethoxy-pyrimidin-2-yl]-7-(1-methylimidazol-4-yl)-1H-indole-3-sulfonamide], for which the pIC50 is 7.77.

Turning to `COc1nc(NS(=O)(=O)c2c[nH]c3c(-c4ncccn4)c(C)ccc23)nc(OC)c1OCC(F)F` [Example 48, N-[5-(2,2-difluoroethoxy)-4,6-dimethoxy-pyrimidin-2-yl]-6-methyl-7-(2-pyrimidyl)-1H-indole-3-sulfonamide], the pIC50 is 7.07.

As for `COc1nc(NS(=O)(=O)c2c[nH]c3c(-c4ncccn4)c(C(F)F)ccc23)nc(OC)c1OCC(F)F` [Example 49, N-[5-(2,2-difluoroethoxy)-4,6-dimethoxy-pyrimidin-2-yl]-6-(difluoromethyl)-7-(2-pyrimidyl)-1H-indole-3-sulfonamide], the pIC50 is 6.52.

Turning to `COc1nc(NS(=O)(=O)c2c[nH]c3c(-c4ncccn4)c(C(F)F)ccc23)nc(OC)c1OC(F)F` [Example 50, N-[5-(difluoromethoxy)-4,6-dimethoxy-pyrimidin-2-yl]-6-(difluoromethyl)-7-(2-pyrimidyl)-1H-indole-3-sulfonamide], the negative-log IC50 (pIC50) is 6.54.

Turning to `COc1nc(NS(=O)(=O)c2c[nH]c3c(-c4ncccn4)c(C(F)F)ccc23)nc(OC)c1CC(F)F` [Example 51, N-[5-(2,2-difluoroethyl)-4,6-dimethoxy-pyrimidin-2-yl]-6-(difluoromethyl)-7-(2-pyrimidyl)-1H-indole-3-sulfonamide], the pIC50 is 7.13.
